Reference: ChEMBL document CHEMBL3769369, “Ligand-based modeling of diverse aryalkylamines yields new potent P-glycoprotein inhibitors” (Eur J Med Chem, 2016)

Tests used:
[1] = Cytotoxicity against human fibroblast cells assessed as viable cells at 50 uM by trypan blue staining based assay; assay type: cell-based; conditions: read-out: Activity
[2] = system: MCF7; assay: Cytotoxicity against human MCF7 cells assessed as viable cells at 50 uM by trypan blue staining based assay; assay type: functional; conditions: read-out: Activity
[3] = Cytotoxicity against human fibroblast cells assessed as viable cells at 10 uM by trypan blue staining based assay; assay type: cell-based; conditions: read-out: Activity
[4] = system: MCF7; assay: Cytotoxicity against human MCF7 cells assessed as viable cells at 10 uM by trypan blue staining based assay; assay type: functional; conditions: read-out: Activity
[5] = Inhibition of P-gp in human MCF7/D70 cells assessed as decrease in doxorubicin IC50 at 50 uM after 72 hrs by MTT assay (Rvb doxorubicin alone IC50 = 0.906 +/- 0.02 uM); assay type: cell-based; conditions: MCF7/D70, 72 h
[6] = Inhibition of P-gp in human MCF7/D70 cells assessed as decrease in doxorubicin IC50 at 10 uM after 72 hrs by MTT assay (Rvb doxorubicin alone IC50 = 0.906 +/- 0.02 uM); assay type: cell-based; conditions: MCF7/D70, 72 h
[7] = Inhibition of P-gp in human MCF7/D70 cells assessed as decrease in doxorubicin IC50 at 1 uM after 72 hrs by MTT assay (Rvb doxorubicin alone IC50 = 0.906 +/- 0.02 uM); assay type: cell-based; conditions: MCF7/D70, 72 h

Row | Compound | viability at 50 µM [1] [%] | viability at 50 µM [2] [%] | viability at 10 µM [3] [%] | viability at 10 µM [4] [%] | IC50 [5] [µM] | IC50 [6] [µM] | IC50 [7] [µM]
1 | CN1CN(c2ccccc2)C2(CCN(CCc3cc4ccccc4o3)CC2)C1=O | 21 | 14 | 92 | 31 |  |  | 
2 | CN(C)C1C(c2ccccc2)S(=O)(=O)C1C1CS(=O)(=O)C1c1ccccc1 (configuration not stated) | 19 | 5 | 39 | 68 |  |  | 
3 | COc1cc(-n2c(CCc3nc(-c4ccc(Cl)cc4)no3)n[nH]c2=S)c(OC)cc1Cl | 61 | 71 | 74 | 86 | 0.3 | 0.31 | 0.94
4 | CC1CN(CC2COc3ccccc3O2)C(C)CN1CC1COc2ccccc2O1 (configuration not stated) | 77 | 53 | 100 | 80 | 0.58 | 1.45 | 
5 | COc1ccc(C2NC(C(=O)O)Cc3c2[nH]c2ccccc32)cc1OC (configuration not stated) | 100 | 92 | 92 | 89 | 1.18 |  | 
6 | CC1(CN2CCCC2)CCC(NC(=O)C(c2ccccc2)c2ccccc2)C(C)(C)O1 (configuration not stated) | 54 | 51 | 88 | 100 | 0.14 | 1.73 | 
7 | CC1(C)CCN(CCOC(=O)C(c2ccccc2)C2C=CCCC2)C1 (configuration not stated) | 59 | 53 | 100 | 98 | 0.55 |  | 
8 | CCN(Cc1ccccc1)C(=O)C1CCN(Cc2c[nH]c3ccccc23)CC1 | 21 | 13 | 56 | 48 | 0.62 |  | 
9 | C[N+]1(CCOC(=O)C(c2ccccc2)C2C=CCC2)CCCC12CCCCC2 (configuration not stated) | 81 | 75 | 100 | 89 | 1.55 |  | 
10 | CN/N=C(\C)C(CN1CCCCC1)C(C1=C(O)c2ccccc2OC1)c1ccccc1 (configuration not stated) | 75 | 97 | 100 | 100 | 1.08 |  | 
11 | CCCNCCC(O)c1cc(C(F)(F)F)nc2c(C(F)(F)F)cccc12 (configuration not stated) | 19 | 6 | 67 | 9 |  |  | 
12 | COc1cc(C2CNCc3cc(OC)c(O)cc32)ccc1O (configuration not stated) | 90 | 73 | 100 | 76 | 0.61 | 0.84 | 
13 | COc1cc2c(cc1OC)C(c1ccc(O)c(O)c1)CNC2 (configuration not stated) | 97 | 97 | 100 | 93 | 0.8 |  | 
14 | COc1cc(C2CNCc3cc(O)c(OC)cc32)ccc1O (configuration not stated) | 100 | 80 | 100 | 75 | 0.83 |  | 
15 | CC1CN(CCOC(=O)C(c2ccccc2)C2C=CCCC2)CC1C (configuration not stated) | 100 | 74 | 100 | 89 | 2.12 |  | 
16 | CN1CCc2ccccc2C1Cc1cc(OCc2ccccc2)ccc1N (configuration not stated) | 16 | 6 | 82 | 74 |  |  | 
17 | N=c1[nH]c(=O)n(CCCCOc2ccccc2)cc1-c1ccc(Cl)c(Cl)c1 | 56 | 58 | 100 | 77 | 0.24 | 0.57 | 

Row | Compound | viability at 50 µM [1] [%] | viability at 50 µM [2] [%] | viability at 10 µM [3] [%] | viability at 10 µM [4] [%] | IC50 [5] [µM] | IC50 [6] [µM] | IC50 [7] [µM]
18 | O=C1NCN(c2ccccc2)C12CCN(CCCS(=O)(=O)c1ccccc1)CC2 | 100 | 80 | 100 | 77 | 0.24 | 1.14 | 
19 | C=CCN1CC[C@]23c4c5ccc(O)c4O[C@H]2C(=O)CC[C@@]3(O)[C@H]1C5 [NALOXONE] | 100 | 67 | 100 | 74 | 0.36 | 0.85 | 
20 | O=C1CN(CCN2CC(=O)N(Cc3ccccc3)C(=O)C2)CC(=O)N1Cc1ccccc1 | 82 | 69 | 100 | 76 | 0.24 | 0.85 | 
21 | CCN(CC)CCC(=O)NC1c2ccc(Cl)cc2Oc2c(C)cccc21 (configuration not stated) | 13 | 9 | 100 | 100 |  |  | 
22 | COc1ccc(CCN(C)CCCC(C#N)(c2ccc(OC)c(OC)c2)C(C)C)cc1OC (configuration not stated) [VERAPAMIL] |  |  |  |  |  | 0.2 | 
23 | NC(c1ccc2c(c1)OCO2)C(O)c1ccc2c(c1)OCO2 (configuration not stated) | 82 | 72 | 100 | 74 | 2.52 |  | 
24 | CCC(C)N1CN(c2ccccc2)C2(CCN(CC3COc4ccccc4O3)CC2)C1=O (configuration not stated) | 70 | 11 | 100 | 93 |  |  | 
25 | CCCC(=O)N(C)C1=Nc2ccc(Cl)cc2C(c2ccccc2)=[N+]([O-])C1 | 68 | 70 | 100 | 95 | 0.49 | 0.38 | 0.39
26 | COc1cc2c(cc1OC)C1C(CO)c3ccc4c(c3CN1CC2)OCO4 (configuration not stated) | 75 | 72 | 100 | 90 | 0.57 |  | 
27 | O=C1OCCN1N1C(=O)CC2(CCN(Cc3ccccc3)CC2)C1=O | 100 | 89 | 100 | 95 | 0.51 |  | 
28 | CCC1=C(CC2NCCc3ccccc32)CC2c3cc(OC)c(OC)cc3CCN2C1 (configuration not stated) | 16 | 5 | 46 | 31 |  |  | 
29 | CC1CN(CCOC(=O)C(c2ccccc2)C2C=CCCC2)C(C)(C)C1 (configuration not stated) | 36 | 61 | 84 | 93 |  |  | 
30 | ClCCNCc1cccc(Nc2ccnc3cc(Cl)ccc23)c1 | 48 | 15 | 96 | 86 |  |  | 
31 | Cc1nn(C(=O)Cc2ccccc2)c2c1C(c1ccc(O)cc1)SC(=N)N2 (configuration not stated) | 63 | 55 | 100 | 96 | 2.07 |  | 
32 | COc1ccc(Nc2ccnc3cc(Cl)ccc23)cc1CNCC(C)C | 17 | 6 | 12 | 26 |  |  | 
33 | Cc1ccc(N2CCN(CCCOC(=O)Nc3cccc4ccccc34)CC2)cc1 | 89 | 70 | 89 | 93 | 0.83 |  | 
34 | Cc1ccc2c(c1)C(NC(Cc1ccccc1)C(=O)O)C(Cl)C(=O)O2 (configuration not stated) | 100 | 74 | 94 | 75 | 0.85 |  | 
